According to patent US12054494B2, “Compound with anticancer activity” (KYOWA KIRIN CO., LTD., priority 2018, dated 2024):

test system: SU-DHL-4 cells; assay: Inhibitory effect on cell viability (Cell Counting Kit-8); assay type: cell-based; conditions: Homo sapiens, 72 hours culture with test compound, concentration showing 90% inhibition rate of cell viability
Method: Inhibitiory Effect on Cell Viability
SU-DHL-4 cells (Code No. ACC 495, Deutsche Sammlung von Mikroorganismen and Zellkulturen GmbH) were cultured at 37° C. using a carbon dioxide incubator (95% air, 5% CO2) in RPMI1640 medium (Code No. 11875-093, Thermo Fisher Scientific) in which inactivated fetal bovine serum (FBS: Code No. 10099-148, Thermo Fisher Scientific) in an amount to give a final concentration of 10 vol % and penicillin/streptomycin solution (PS: Code No. 15140-122, Thermo Fisher Scientific) in an amount to give a final concentration of 1 vol % were added. The cells were passaged twice a week at a volume of 20-40 mL so as to maintain a cell concentration of 1×10^6 cells/mL or less.
The cultured SU-DHL-4 cells were seeded at 2000 cells/well in a transparent 384-well plate (Code No. 781182, Greiner bio-one). After seeding, the cells were precultured at 37° C. in a carbon dioxide gas incubator for 18 to 25 hours. Next, 1, 0.1 or 0.01 mmol/L DMSO solution of the test compound was prepared and a 9-step dilution series were prepared so that the concentration will be 200 times the final concentration in the RPMI1640 medium containing the above FBS and PS, and 1/200 volume of the dilution series were added to each well. At this time, the final concentration of DMSO was adjusted to be 0.1 vol %. After adding the test compound, the cells were cultured at 37° C. in a carbon dioxide gas incubator for 72 hours. Next, 0.020 mL of Cell Counting Kit-8 (Code No. CK04, DOJINDO) solution diluted 2-fold or 4-fold with phosphate buffered saline (PBS) was added to each well. Color reaction was carried out in a carbon dioxide gas incubator at 37° C. for 2 to 3 hours, and the absorbance at a wavelength of 450 nm was measured using SpectraMax 340PC (Molecular Devices). The inhibition rate of cell viability was calculated by the following formula, and the concentration of the test compound (IC90 value) showing a 90% inhibition rate of cell viability was calculated. Inhibition rate of cell viability (%)=100−(A−B)/(C−B)×100 • A: Absorbance of a well containing test compound • B: Absorbance of a well without addition of cells • C: Absorbance of a well without addition of test compound

Row | SMILES | IC90
1 | CCC(=O)N1c2ccccc2[C@H](Nc2ccc(C(=O)NC3CCN(C(=O)c4ccc(N[C@@H]5C[C@H](C)N(C(=O)CC)c6ccccc65)cc4)CC3)cc2)C[C@@H]1C (relative stereo) [Compound 1c, 4-{[(2S*,4R*)-2-Methyl-1-propionyl-1,2,3,4-tetrahydroquinolin-4-yl]amino}-N-[1-(4-{[(2S*,4R*)-2-methyl-1-propionyl-1,2,3,4-tetrahydroquinolin-4-yl]amino}benzoyl)piperidin-4-yl]benzamide] | 7.85 nM
2 | CCC(=O)N1c2ccccc2[C@H](Nc2ccc(C(=O)NC3CN(C(=O)c4ccc(N[C@@H]5C[C@H](C)N(C(=O)CC)c6ccccc65)cc4)C3)cc2)C[C@@H]1C (relative stereo) [Compound 1g, 4-{[(2S*,4R*)-2-Methyl-1-propionyl-1,2,3,4-tetrahydroquinolin-4-yl]amino}-N-[1-(4-{[(2S*,4R*)-2-methyl-1-propionyl-1,2,3,4-tetrahydroquinolin-4-yl]amino}benzoyl)azetidin-3-yl]benzamide] | 10.6 nM
3 | CCC(=O)N1c2ccccc2[C@H](Nc2ccc(NC(=O)CNC(=O)c3ccc(N[C@@H]4C[C@H](C)N(C(=O)CC)c5ccccc54)cc3)cc2)C[C@@H]1C (relative stereo) [Compound 2a, 4-{[(2S*,4R*)-2-Methyl-1-propionyl-1,2,3,4-tetrahydroquinolin-4-yl]amino}-N-{2-[(4-{[(2S*,4R*)-2-methyl-1-propionyl-1,2,3,4-tetrahydroquinolin-4-yl]amino}phenyl)amino]-2-oxoethyl}benzamide] | 2.12 nM
4 | CCC(=O)N1c2ccccc2[C@H](Nc2ccc(NC(=O)[C@@H](C)NC(=O)c3ccc(N[C@@H]4C[C@H](C)N(C(=O)CC)c5ccccc54)cc3)cc2)C[C@@H]1C (relative stereo) [Compound 2c, 4-{[(2S,4R)-2-Methyl-1-propionyl-1,2,3,4-tetrahydroquinolin-4-yl]amino}-N-{(R)-1-[(4-{[(2S*,4R*)-2-methyl-1-propionyl-1,2,3,4-tetrahydroquinolin-4-yl]amino}phenyl)amino]-1-oxopropan-2-yl}benzamide] | 29.1 nM
5 | CCC(=O)N1c2ccccc2[C@H](Nc2ccc(NC(=O)[C@H](C)NC(=O)c3ccc(N[C@@H]4C[C@H](C)N(C(=O)CC)c5ccccc54)cc3)cc2)C[C@@H]1C (relative stereo) [Compound 2d, 4-{[(2S,4R)-2-Methyl-1-propionyl-1,2,3,4-tetrahydroquinolin-4-yl]amino}-N-{(S)-1-[(4-{[(2S*,4R*)-2-methyl-1-propionyl-1,2,3,4-tetrahydroquinolin-4-yl]amino}phenyl)amino]-1-oxopropan-2-yl}benzamide] | 26.6 nM
6 | CCC(=O)N1c2ccccc2[C@H](Nc2ccc(NC(=O)[C@@H](NC(=O)c3ccc(N[C@@H]4C[C@H](C)N(C(=O)CC)c5ccccc54)cc3)C(C)C)cc2)C[C@@H]1C (relative stereo) [Compound 2e, N-{(S)-3-Methyl-1-[(4-{[(2S*,4R*)-2-methyl-1-propionyl-1,2,3,4-tetrahydroquinolin-4-yl]amino}phenyl)amino]-1-oxobutan-2-yl}-4-{[(2S,4R)-2-methyl-1-propionyl-1,2,3,4-tetrahydroquinolin-4-yl]amino}benzamide] | 16.3 nM
7 | CCC(=O)N1c2ccccc2[C@H](Nc2ccc(NC(=O)CCNC(=O)c3ccc(N[C@@H]4C[C@H](C)N(C(=O)CC)c5ccccc54)cc3)cc2)C[C@@H]1C (relative stereo) [Compound 2f, 4-{[(2S,4R)-2-Methyl-1-propionyl-1,2,3,4-tetrahydroquinolin-4-yl]amino}-N-{3-[(4-{[(2S*,4R*)-2-methyl-1-propionyl-1,2,3,4-tetra hydroquinolin-4-yl]amino}phenyl)amino]-3-oxopropyl}benzamide] | 0.23 nM
8 | CCC(=O)N1c2ccccc2[C@H](Nc2ccc(NC(=O)C3CCN(C(=O)c4ccc(N[C@@H]5C[C@H](C)N(C(=O)CC)c6ccccc65)cc4)CC3)cc2)C[C@@H]1C (relative stereo) [Compound 2g, 1-(4-{[(2S,4R)-2-Methyl-1-propionyl-1,2,3,4-tetrahydroquinolin-4-yl]amino}benzoyl)-N-(4-{[(2S*,4R*)-2-methyl-1-propionyl-1,2,3,4-tetrahydroquinolin-4-yl]amino}phenyl)piperidine-4-carboxamide] | 0.63 nM
9 | CCC(=O)N1c2ccccc2[C@H](Nc2ccc(NC(=O)C3CN(C(=O)c4ccc(N[C@@H]5C[C@H](C)N(C(=O)CC)c6ccccc65)cc4)C3)cc2)C[C@@H]1C (relative stereo) [Compound 2h, 1-(4-{[(2S,4R)-2-Methyl-1-propionyl-1,2,3,4-tetrahydroquinolin-4-yl]amino}benzoyl)-N-(4-{[(2S*,4R*)-2-methyl-1-propionyl-1,2,3,4-tetrahydroquinolin-4-yl]amino}phenyl)azetidine-3-carboxamide] | 0.03 nM
10 | CCC(=O)N1c2ccccc2[C@H](Nc2ccc(NC(=O)[C@@H]3CCN(C(=O)c4ccc(N[C@@H]5C[C@H](C)N(C(=O)CC)c6ccccc65)cc4)C3)cc2)C[C@@H]1C (relative stereo) [Compound 2i, (R)-1-(4-{[(2S,4R)-2-Methyl-1-propionyl-1,2,3,4-tetrahydroquinolin-4-yl]amino}benzoyl)-N-(4-{[(2S*,4R*)-2-methyl-1-propionyl-1,2,3,4-tetrahydroquinolin-4-yl]amino}phenyl)pyrrolidine-3-carboxamide] | 1.84 nM

Further lines, results first:

Row | IC90 | SMILES
11 | 5.87 nM | CCC(=O)N1c2ccccc2[C@H](Nc2ccc(NC(=O)CC(C)CC(=O)Nc3ccc(N[C@@H]4C[C@H](C)N(C(=O)CC)c5ccccc54)cc3)cc2)C[C@@H]1C (relative stereo) [Compound 4b, 3-Methyl-N^1,N^5-bis(4-{[(2S*,4R*)-2-methyl-1-propionyl-1,2,3,4-tetrahydroquinolin-4-yl]amino}phenyl)pentanediamide]
12 | 4.03 nM | CCC(=O)N1c2ccccc2[C@H](Nc2ccc(NS(=O)(=O)c3cccc(NC(=O)c4ccc(N[C@@H]5C[C@H](C)N(C(=O)CC)c6ccccc65)cc4)c3)cc2)C[C@@H]1C (relative stereo) [Compound 4c, 4-{[(2S,4R)-2-Methyl-1-propionyl-1,2,3,4-tetrahydroquinolin-4-yl]amino}-N-{3-[N-(4-{[(2S*,4R*)-2-methyl-1-propionyl-1,2,3,4-tetrahydroquinolin-4-yl]amino}phenyl)sulfamoyl]phenyl}benzamide]
13 | 0.34 nM | CCC(=O)N1c2ccccc2[C@H](Nc2ccc(NC(=O)CCSc3ccc(N[C@@H]4C[C@H](C)N(C(=O)CC)c5ccccc54)cc3)cc2)C[C@@H]1C (relative stereo) [Compound 4e, N-(4-{[(2S*,4R*)-2-Methyl-1-propionyl-1,2,3,4-tetrahydroquinolin-4-yl]amino}phenyl)-3-[(4-{[(2S,4R)-2-methyl-1-propionyl-1,2,3,4-tetrahydroquinolin-4-yl]amino}phenyl)thio]propanamide]
14 | 0.11 nM | CCC(=O)N1c2ccccc2[C@H](Nc2ccc(NC(=O)Cc3cn(-c4ccc(N[C@@H]5C[C@H](C)N(C(=O)CC)c6ccccc65)cc4)nn3)cc2)C[C@@H]1C (relative stereo) [Compound 6i, N-(4-(((2S*,4R*)-2-Methyl-1-propionyl-1,2,3,4-tetrahydroquinolin-4-yl)amino)phenyl)-2-(1-(4-(((2S*,4R*)-2-methyl-1-propionyl-1,2,3,4-tetrahydroquinolin-4-yl)amino)phenyl)-1H-1,2,3-triazol-4-yl)acetamide]
15 | 0.35 nM | CCC(=O)N1c2ccccc2[C@H](Nc2ccc(NC(=O)NCCNC(=O)c3ccc(N[C@@H]4C[C@H](C)N(C(=O)CC)c5ccccc54)cc3)cc2)C[C@@H]1C (relative stereo) [Compound 6l, 4-(((2S,4R)-2-Methyl-1-propionyl-1,2,3,4-tetrahydroquinolin-4-yl)amino)-N-(2-(3-(4-(((2S*,4R*)-2-methyl-1-propionyl-1,2,3,4-tetrahydroquinolin-4-yl)amino)phenyl)ureido)ethyl)benzamide]
16 | 0.12 nM | CCC(=O)N1c2ccccc2[C@H](Nc2ccc(NC(=O)N3CCN(C(=O)c4ccc(N[C@@H]5C[C@H](C)N(C(=O)CC)c6ccccc65)cc4)CC3)cc2)C[C@@H]1C (relative stereo) [Compound 6m, 4-(4-(((2S,4R)-2-Methyl-1-propionyl-1,2,3,4-tetrahydroquinolin-4-yl)amino)benzoyl)-N-(4-(((2S*,4R*)-2-methyl-1-propionyl-1,2,3,4-tetrahydroquinolin-4-yl)amino)phenyl)piperazine-1-carboxamide]
